According to patent publication US9115073B2, “1,3-diphenylpropane derivatives, preparations and uses thereof” (GENFIT, priority 2011, dated 2015):

Key:
Format in all cases: cell-based
[1] = molecular target: T1, hPPARalpha (Homo sapiens, UniProt Q07869); assay: Gal4-hPPARalpha transactivation assay in COS-7 cells (luciferase); settings: for Emax: COS-7, maximal relative activation vs reference, read-out: Gal4-hPPARα(LBD) TOP (% ref); for EC50: Gal4-hPPARα(LBD) transactivation; for Gal4-hPPARα(LBD) TOP (% ref): maximal relative activation vs reference
T1 construct: Gal4-hPPARα(LBD); Gal4 (fusion partner); expressed in transfected cells; host or cells: COS-7 (monkey kidney)
T1 sequence (Q07869 239-466 limits assumed): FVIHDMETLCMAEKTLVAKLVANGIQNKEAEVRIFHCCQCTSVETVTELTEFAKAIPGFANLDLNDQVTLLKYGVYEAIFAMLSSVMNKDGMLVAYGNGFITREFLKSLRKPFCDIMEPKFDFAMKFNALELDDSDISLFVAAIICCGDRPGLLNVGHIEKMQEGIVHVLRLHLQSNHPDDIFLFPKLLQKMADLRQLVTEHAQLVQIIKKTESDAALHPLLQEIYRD
Procedure: (§1) Monkey kidney COS-7 cells were maintained in standard culture conditions (Dulbecco's modified Eagle's minimal medium: DMEM) supplemented with 10% fetal calf serum, 1% sodium pyruvate, 1% essential amino acids and 1% antibiotics at 37° C. in a humidified atmosphere of 5% C02 and 95% air. The medium was changed every 2 days. All tested compounds were dissolved in DMSO. Cells were transfected using 2 μl JetPEI™ (Polyplus transfection)/μg of DNA. Briefly, 40 μg of DNA was transfected in a 225 cm^2 culture flask of adherent COS-7 cells (respecting the 1/50 ratio between the Gal4(RE)_TkpGL3 plasmid and the plasmid coding the nuclear receptor of interest (pGal4-hPPARalpha, pGal4-hPPARgamma, pGal4-hPPARdelta, pGal4-mPPARalpha, pGal4-mPPARgamma and pGal4-mPPARdelta) or of the pGal4phi plasmid (negative control). Cells were enzymatically detached and seeded in 384 well plates at the density of 20,000 cells/well and then incubated for 4 hours at 37° C. The activation was automatically performed, by using the Genesis Freedom 200™ (Tecan), in fresh medium supplemented with 2% of synthetic serum, free of lipids (Ultroser™, Biosepra) supplemented with the tested compounds (compound of interest or reference molecules) or vehicle (DMSO 0.1%). The luciferase activity was measured with the Steady-Glo Luciferase Assay System (Promega, Madison, Wis.). All transactivation experiments were performed at least 2 times. Activation curves were realized using SigmaPlot® (version 7.0 from SPSS Inc.) software and took into account all the experimental points. SimgaPlot® was also used to fit the standard curves and then determine the specific EC50 values, maximum effect versus reference molecules and Hill slope. The Emax effect of each new ligand is represented as the ratio of the maximal induction (plateau) obtained with the new ligand and the induction obtained with the corresponding reference compound. The reference compounds for PPARalpha, PPARgamma and PPARdelta were fenofibrate (100 μM), rosiglitazone (10 μM) and GW501516 (1 μM).

[2] = molecular target: T2, hPPARdelta (Homo sapiens, UniProt Q03181); assay: Gal4-hPPARdelta transactivation assay in COS-7 cells (luciferase); settings: for Emax: COS-7, maximal relative activation vs reference, read-out: Gal4-hPPARδ(LBD) TOP (% ref); for EC50: Gal4-hPPARδ(LBD) transactivation; for Gal4-hPPARδ(LBD) TOP (% ref): maximal relative activation vs reference
T2 construct: Gal4-hPPARδ(LBD); Gal4 (fusion partner); expressed in transfected cells; host or cells: COS-7 (monkey kidney)
T2 sequence (Q03181 211-439 limits assumed): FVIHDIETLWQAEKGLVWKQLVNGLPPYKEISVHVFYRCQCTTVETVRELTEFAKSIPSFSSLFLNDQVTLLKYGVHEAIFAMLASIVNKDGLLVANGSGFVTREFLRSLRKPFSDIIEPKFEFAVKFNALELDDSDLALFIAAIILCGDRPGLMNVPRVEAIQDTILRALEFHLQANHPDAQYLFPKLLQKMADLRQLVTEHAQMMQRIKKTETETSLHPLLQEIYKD
Procedure: as §1

[3] = molecular target: T3, hPPARgamma (Homo sapiens, UniProt P37231); assay: Gal4-hPPARgamma transactivation assay in COS-7 cells (luciferase); settings: for Emax: COS-7, maximal relative activation vs reference, read-out: Gal4-hPPARγ(LBD) TOP (% ref); for EC50: Gal4-hPPARγ(LBD) transactivation; for Gal4-hPPARγ(LBD) TOP (% ref): maximal relative activation vs reference
T3 construct: Gal4-hPPARγ(LBD); Gal4 (fusion partner); expressed in transfected cells; host or cells: COS-7 (monkey kidney)
T3 sequence (P37231 238-503 limits assumed): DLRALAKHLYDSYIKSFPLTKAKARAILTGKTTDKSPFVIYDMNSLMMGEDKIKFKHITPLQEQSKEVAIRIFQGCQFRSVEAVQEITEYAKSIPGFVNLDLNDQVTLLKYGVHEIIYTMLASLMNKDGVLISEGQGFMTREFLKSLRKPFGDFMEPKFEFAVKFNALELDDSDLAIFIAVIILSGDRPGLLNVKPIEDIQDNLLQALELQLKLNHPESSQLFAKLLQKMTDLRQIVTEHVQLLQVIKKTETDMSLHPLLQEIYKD
Procedure: as §1

| SMILES | Emax [1] [%] | EC50 [1] [nM] | Emax [2] [%] | EC50 [2] [nM] | Emax [3] [%] | EC50 [3] [nM] | Gal4-hPPARα(LBD) TOP (% ref) [1] [% ref] | Gal4-hPPARδ(LBD) TOP (% ref) [2] [% ref] | Gal4-hPPARγ(LBD) TOP (% ref) [3] [% ref] |
| --- | --- | --- | --- | --- | --- | --- | --- | --- | --- |
| COC(c1ccc(C)cc1)C1CC1c1cc(C)c(OC(C)(C)C(=O)O)c(C)c1 (racemic) [Cpd 2-1, 2-(4-(2-(methoxy(4-methylphenyl)methyl)cyclopropyl)-2,6-dimethylphenoxy)-2-methylpropanoic acid] | 35 | 635 | 85 | 152 | 72 | 110 | – | – | – |
| COc1cc(OC(F)(F)F)ccc1C(OC)C1CC1c1cc(C)c(OC(C)(C)C(=O)O)c(C)c1 (racemic) [Cpd 17-1, 2-(4-(2-(methoxy(2-methoxy-4-(trifluoromethoxy)phenyl)methyl)cyclopropyl)-2,6-dimethylphenoxy)-2-methylpropanoic acid] | 49 | 38 | 86 | 6 | 75 | 12 | – | – | – |
| COC(c1ccc(OC(F)(F)F)cc1)C1CC1c1ccc(OC(C)(C)C(=O)O)c(C)c1 (racemic) [Cpd 7-1, 2-(4-(2-(methoxy(4-(trifluoromethoxy)phenyl)methyl)cyclopropyl)-2-methylphenoxy)-2-methylpropanoic acid] | 42 | 265 | 90 | 35 | 55 | 45 | – | – | – |
| Cc1cc(C2CC2C(OCc2ccccc2)c2ccc(OC(F)(F)F)cc2)cc(C)c1OC(C)(C)C(=O)O (racemic) [Cpd 11-2, 2-(4-(2-(benzyloxy(4-(trifluoromethoxy)phenyl)methyl)cyclopropyl)-2,6-dimethylphenoxy)-2-methylpropanoic acid] | – | – | – | – | – | – | 42 | 67 | 87 |
| CCCCOC(c1ccc(OC(F)(F)F)cc1)C1CC1c1cc(C)c(OC(C)(C)C(=O)O)c(C)c1 (racemic) [Cpd 5-2, 2-(4-(2-(butyloxy(4-(trifluoromethoxy)phenyl)methyl)cyclopropyl)-2,6-dimethylphenoxy)-2-methylpropanoic acid] | – | – | – | – | – | – | 47 | 60 | 72 |
| COC(c1ccc(OC(F)(F)F)cc1)C1CC1c1ccc(OC(C)(C)C(=O)O)c(C2CC2)c1 (racemic) [Cpd 21-1, 2-(2-cyclopropyl-4-(2-(methoxy(4-(trifluoromethoxy)phenyl)methyl)cyclopropyl)phenoxy)-2-methylpropanoic acid] | 17 | 3650 | 88 | 3270 | 48 | 828 | – | – | – |
| COC(c1ccc(C(F)(F)F)cc1C(F)(F)F)C1CC1c1cc(C)c(OC(C)(C)C(=O)O)c(C)c1 (single isomer, unassigned) [Cpd 16-2, 2-(4-(2-((2,4-bis(trifluoromethyl)phenyl)(methoxy)methyl)cyclopropyl)-2,6-dimethylphenoxy)-2-methylpropanoic acid] | – | 50 | – | 12 | – | 2 | – | – | – |
| Cc1cc(C2CC2C(OCCC2CCCCC2)c2ccc(OC(F)(F)F)cc2)cc(C)c1OC(C)(C)C(=O)O (racemic) [Cpd 6-1, 2-(4-(2-(cyclohexylethyloxy(4-(trifluoromethoxy)phenyl)methyl)cyclopropyl)-2,6-dimethylphenoxy)-2-methylpropanoic acid] | 36 | 68 | 72 | 100 | 71 | 94 | – | – | – |
| Cc1cc(C2CC2C(OCc2ccccc2)c2ccc(OC(F)(F)F)cc2)cc(C)c1OC(C)(C)C(=O)O (single isomer, unassigned) [Cpd 11-1, 2-(4-(2-(benzyloxy(4-(trifluoromethoxy)phenyl)methyl)cyclopropyl)-2,6-dimethylphenoxy)-2-methylpropanoic acid] | 46 | 21 | 75 | 79 | 86 | 116 | – | – | – |
